Assay results published in patent publication US6172038A, “Antipathogenic peptides and compositions comprising them” (priority 1996, dated 2001).

How the values were obtained:
Format in all cases: cell-based
Escherichia coli D21 = assay: Antibacterial activity (MIC), growth inhibition in 96-well plates
[1] = system: Acinetobacter calcoaceticus Ac11; assay: as above; settings: 100% inhibition of growth after 18-20 h at 37° C.
Bacillus megaterium Bm11 = assay: as above; settings: 100% inhibition of growth after 18-20 h at 37° C.
[2] = system: Pseudomonas aeruginosa ATCC 27853; assay: Antibacterial activity (MIC), growth inhibition in 96-well plates; also synergy with tetracycline
Procedure: (viii) Antibacterial activity of the peptides.
Antibacterial activity of the mixtures was determined as described in Experimental procedures, section (xii).

[3] = system: Bacillus subtilis ATCC 6051; assay: Antibacterial activity (MIC), growth inhibition in 96-well plates; settings: 100% inhibition of growth after 18-20 h at 37° C.
[4] = system: human red blood cells (hRBC); assay: Hemolysis of human red blood cells; settings: 50 μM peptide, 30 min at 37° C.
Procedure: (ix) Hemolysis of human red blood cells. The peptides were tested for their hemolytic activities against human red blood cells (hRBC). Fresh hRBC with EDTA were rinsed 3 times with PBS (35 mM phosphate buffer/0.15 M NaCl, pH 7.3) by centrifugation for 10 min at 800 g and resuspended in PBS. Peptides dissolved in PBS were then added to 50 μL of a solution of the stock hRBC in PBS to reach a final volume of 100 μL (final erythrocyte concentration, 5% v/v). The resulting suspension was incubated under agitation for 30 min at 37° C. The samples were then centrifuged at 800 g for 10 min. Release of hemoglobin was monitored by measuring the absorbance of the supernatant at 540 nm. Controls for zero hemolysis (blank) and 100% hemolysis consisted of hRBC suspended in PBS and Triton 1%, respectively.

[5] = system: P. aeruginosa and E. coli; assay: Effect of pooled human serum on antibacterial activity
Procedure: (vi) Preparation of serunl Blood was collected from five volunteers and allowed to clot at room temperature for 4 h. The blood was then centrifuged for 15 min at 1500 g, and the serum was removed and pooled. The serum complement was inactivated by heating at 56° C. for 30 min.
(viii) Antibacterial activity of the peptides. The antibacterial activity of the diastereomers was examined in sterile 96-well plates (Nunc F96 microtiter plates) in a final volume of 100 μL as follows: Aliquots (50 μl) of a suspension containing bacteria at a concentration of 10^6 Colony-Forming Units (CFU)/ml LB (Lauria broth) medium were added to 50 μL of water or 66% pooled normal human serum in PBS, containing the peptide in 2-fold serial dilutions. Growth inhibition was determined by measuring the absorbance at 492 nm with a Microplate autoreader El309 (Bio-tek Instruments), following incubation for 18-20 h at 37° C. […] The bacteria used were: Escherichia coli D21, Pseudomonas aeruginosa ATCC 27853, Acinetobacter calcoaceticus Acl1, Salmonella typhimurium LT2, Bacillus megaterium Bml1, Micrococcus luteus ATCC 9341, Bacillus subtilis ATCC 6051.

[6] = 100% inhibition of growth after 18-20 h at 37° C.

dermaseptin S [reference compound]
Minimal Inhibitory Concentration E. coli (D21) 0% Serum (Escherichia coli D21; 0% Serum): 6 µM
Minimal Inhibitory Concentration E. coli (D21) 33% Serum (Escherichia coli D21; 33% pooled human serum): 50 µM
Minimal Inhibitory Concentration E. coli (D21) (Escherichia coli D21; [6]): 6 µM
Minimal Inhibitory Concentration A. calcoaceticus (Ac11) [1]: 3 µM
Minimal Inhibitory Concentration B. megaterium (Bm11) (Bacillus megaterium Bm11): 0.5 µM
Minimal Inhibitory Concentration P. aeruginosa (ATCC-27853) 0% Serum ([2]; 0% Serum): 25 µM
Minimal Inhibitory Concentration P. aeruginosa (ATCC-27853) 33% Serum ([2]; 33% pooled human serum): 200 µM
Minimal Inhibitory Concentration P. aeruginosa (ATCC 27853) [2, 6]: 25 µM
Minimal Inhibitory Concentration B. subtilis (ATCC 6051) [3]: 4 µM
% hemolysis at 50 μM peptide [4]: 9%
fold less active in the presence of serum [5]: 8-10 fold
